This is an account of results in ChEMBL document CHEMBL1201862, “PubChem BioAssay data set” (2004).

Active and inactive are the calls of the source.

Assay [1] addresses T1, Bcl-2-like protein 10 (Homo sapiens, UniProt Q9HD36).
T1 sequence (Q9HD36 whole entry): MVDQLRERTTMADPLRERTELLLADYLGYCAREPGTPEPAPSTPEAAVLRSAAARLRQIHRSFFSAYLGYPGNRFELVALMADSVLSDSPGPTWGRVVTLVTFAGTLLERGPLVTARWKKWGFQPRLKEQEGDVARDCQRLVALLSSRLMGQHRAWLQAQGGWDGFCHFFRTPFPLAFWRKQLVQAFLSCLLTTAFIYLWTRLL
The assay can be described thus: Biochemical TR3 FP assay of Bcl-B inhibitor potency, EC50 (AID 1243). The class given is functional.

Assay [2] in a line: inhibitors of firefly luciferase expression or activity, dose response, H4 neuroglioma cells, luminescence (AID 1990). The class given is functional, cell-based.
Assay [3] has as its system Streptococcus. The assay can be described thus: Group A Streptococcus viability loss, dose response, counter-screen for streptokinase expression inhibitor project, luminescence, BacTiterGlo (AID 1915).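 Note: potency for reduction of bacterial viability or growth.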 The class given is functional, organism-based. For orientation: A counterscreen serves to expose hits that act by an unwanted route or on another target.
Assay [4] concerns Streptococcus sp. 'group A'. The assay can be described thus: growth inhibition of control SK(-) GAS strain, dose response, counter-screen for streptokinase expression inhibitor project, luminescence, kanamycin, BacTiterGlo, confirmation (AID 1900). It is filed as functional, organism-based. The note with it: read-out: EC50.
Assay [5] relates to Streptococcus. The assay can be described thus: Luminescence Microorganism-Based Dose Response Follow up to Identify Compounds Cytotoxic to Streptococcus. [Related pubchem assays: 1677 (Project Summary), 1915, 1914, 1902 (Retest at Dose), 1900 (Counter Screen), 1662 (Primary HTS)]. The class given is functional, organism-based.
Assay [6] deals with T2, Streptokinase A (Streptococcus pyogenes serotype M1, UniProt P10520).
T2 sequence (P10520 whole entry): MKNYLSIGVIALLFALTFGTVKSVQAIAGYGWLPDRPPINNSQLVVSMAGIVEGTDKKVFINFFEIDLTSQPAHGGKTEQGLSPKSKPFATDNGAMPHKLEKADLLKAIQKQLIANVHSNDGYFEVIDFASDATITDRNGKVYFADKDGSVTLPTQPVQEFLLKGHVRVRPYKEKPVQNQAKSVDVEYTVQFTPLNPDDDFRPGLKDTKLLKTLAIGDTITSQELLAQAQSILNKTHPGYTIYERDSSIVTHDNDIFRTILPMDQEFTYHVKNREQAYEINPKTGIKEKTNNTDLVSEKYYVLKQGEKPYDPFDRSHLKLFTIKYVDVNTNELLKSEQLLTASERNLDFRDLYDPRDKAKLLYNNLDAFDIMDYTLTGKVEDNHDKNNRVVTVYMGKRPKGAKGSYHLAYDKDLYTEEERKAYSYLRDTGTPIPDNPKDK
The assay can be described thus: S. pyogenes streptokinase expression inhibitors, potency, dose response, plasminogen activation absorbance, OD405 (AID 1914).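 Note: secreted streptokinase activity via plasminogen activation per viability signal from cell pellet.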 It is filed as functional, Streptococcus pyogenes M1 GAS.

Assay [7] can be described thus: inhibitors of SNCA 5'UTR-driven reporter translation, confirmation, H4 neuroglioma cells, luminescence (AID 1988). It is filed as functional, cell-based.
Assay [8] in a line: Luminescence Cell-Based Dose Response HTS to Identify Inhibitors of 5'UTR Stem-Loop Driven Prion Protein mRNA Translation in H4 Neuroglioblastoma Cells. [Related pubchem assays: 1827 (Project Summary), 1813 (Primary HTS)]. The class given is functional.
Assay [9] in a line: Luminescence Cell-Based Dose-Confimation HTS to Identify Inhibitors of 5'UTR Stem-Loop Driven Alpha-Synuclein mRNA Translation in H4 Neuroglioblastoma Cells. [Related pubchem assays: 1827 (Project Summary), 1813 (Primary HTS)]. The class given is functional.
Assay [10] has as its target Transitional endoplasmic reticulum ATPase (Homo sapiens, UniProt P55072). The assay can be described thus: p97 ATPase inhibitors, dose response, biochemical (AID 1534).
The test system of assay [11] is Vero. The assay can be described thus: cells. It is filed as functional, cell-based. The note with it: Chlorocebus sabaeus.
Assay [12] is described as follows: A cytotoxicity screen of small molecule inhibitors of the PhoP region in Salmonella typhi identified in the primary screen. [Related pubchem assays: 1850, 1864, 1985 ]. It is filed as functional.
Assay [13] concerns the target Transitional endoplasmic reticulum ATPase (Homo sapiens, UniProt P55072, C522A). The assay can be described thus: C522A mutant p97 ATPase inhibitors, dose response, counter-screen for p97 inhibitor project, biochemical, luminescence (AID 1544).
Assay [14] is described as follows: inhibitors of Bluetongue virus cytopathic effect, confirmation, arbovirus, BSR cells (AID 1250).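 Note: protection from viral cytopathic effect measured as cell viability by ATP luminescence.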 The class given is functional.
The target in assay [15] is T3, Calpain-2 catalytic subunit (Sus scrofa, UniProt P43367).
T3 sequence (P43367 whole entry): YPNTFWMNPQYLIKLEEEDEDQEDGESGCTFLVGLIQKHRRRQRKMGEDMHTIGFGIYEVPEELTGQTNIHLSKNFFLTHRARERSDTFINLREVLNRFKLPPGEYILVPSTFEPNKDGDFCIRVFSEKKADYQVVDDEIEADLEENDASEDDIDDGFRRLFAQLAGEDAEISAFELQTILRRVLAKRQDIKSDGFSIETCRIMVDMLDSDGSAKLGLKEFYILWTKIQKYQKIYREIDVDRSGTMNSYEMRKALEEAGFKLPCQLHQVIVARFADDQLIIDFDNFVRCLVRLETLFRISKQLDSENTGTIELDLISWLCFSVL
The assay can be described thus: pig calpain II inhibitor potency, dose response, biochemical, fluorogenic peptide substrate (AID 1420). The class given is functional.

Assay [16] concerns the target Ion channel NompC (Danio rerio, UniProt Q7T1G6). The assay can be described thus: Fluorescence counterscreen assay for TRPML3 agonists: dose response cell-based high-throughput screening assay to identify agonists of the transient receptor potential channel N1 (TRPN1). [Related pubchem assays: 1526, 1424, 1448 ]. It is filed as functional.
In assay [17] the target is Mucolipin-3 (Homo sapiens, UniProt Q8TDD5). The assay can be described thus: Dose response cell-based high-throughput screening assay for agonists of the transient receptor potential channel ML3 (TRPML3). [Related pubchem assays: 1526, 1424, 1448 ]. The class given is functional.
In assay [18] the target is Large T antigen (Simian virus 40, UniProt P03070). It is filed as functional, Betapolyomavirus macacae.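 Note: Confirmatory-stage PubChem screen for compounds that inhibit SV40 T antigen.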
Assay [19] has as its target T4, Intestinal-type alkaline phosphatase (Homo sapiens, UniProt P09923). The assay can be described thus: human IAP inhibitors, dose response, biochemical, luminescent, uHTS hits, set 2 (AID 488793). The class given is functional.
In assay [20] the target is Photoreceptor-specific nuclear receptor (Homo sapiens, UniProt Q9Y5X4). The class given is functional.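 Note: potency for compounds that break the NR2E3 corepressor complex and count as activators.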
In assay [21] the target is T5, Alkaline phosphatase, tissue-nonspecific isozyme (Homo sapiens, UniProt P05186).
T5 sequence (P05186 whole entry): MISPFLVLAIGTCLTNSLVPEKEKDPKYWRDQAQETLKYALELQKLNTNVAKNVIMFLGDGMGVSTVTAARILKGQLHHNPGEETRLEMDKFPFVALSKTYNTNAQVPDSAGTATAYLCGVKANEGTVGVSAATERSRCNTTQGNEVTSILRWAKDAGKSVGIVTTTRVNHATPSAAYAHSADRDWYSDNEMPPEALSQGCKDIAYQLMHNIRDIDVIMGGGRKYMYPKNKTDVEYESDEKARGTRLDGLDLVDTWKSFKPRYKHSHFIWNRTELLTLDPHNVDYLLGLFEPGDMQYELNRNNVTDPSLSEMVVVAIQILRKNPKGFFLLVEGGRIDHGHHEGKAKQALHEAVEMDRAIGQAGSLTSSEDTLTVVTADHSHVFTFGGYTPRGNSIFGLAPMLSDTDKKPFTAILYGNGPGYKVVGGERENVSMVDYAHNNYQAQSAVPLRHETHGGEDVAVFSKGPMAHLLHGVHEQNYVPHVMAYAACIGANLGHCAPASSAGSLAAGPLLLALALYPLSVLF
The assay can be described thus: TNAP enzyme activators, dose response, selectivity assay for human IAP activator project, biochemical, TNAP isozyme, human IAP uHTS hits (AID 488886).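 Note: potency of compounds raising TNAP activity as a selectivity check on IAP activators.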 It is filed as functional.

Assay [22] has as its target T4, Intestinal-type alkaline phosphatase. The assay can be described thus: Dose Response confirmation of uHTS hits from a small molecule inhibitors of human intestinal alkaline phosphatase via a luminescent assay. [Related pubchem assays (depositor defined):AID2544, AID2574]. It is filed as functional.
The target in assay [23] is Peroxisome proliferator-activated receptor gamma/Nuclear receptor corepressor 2 (Homo sapiens, UniProt P37231+Q9Y618). The class given is functional.
Assay [24] deals with Intestinal-type alkaline phosphatase (Mus musculus, UniProt P24822). The assay can be described thus: PubChem AID 488874. The class given is functional.
For assay [25], the system named is HT-1080. The assay can be described thus: cytotoxicity in HT1080 fibrosarcoma cells, cell-based, fluorescence readout (AID 620). The class given is functional. The note with it: Homo sapiens.
Assay [26] has as its system HEK293. The assay can be described thus: inhibitors of LMP1-driven NF-kB reporter, dose response, cell-based, HEK293, luciferase, cherry-pick (AID 588343). The note with it: Homo sapiens. It is filed as functional.
The target of assay [27] is Luciferin 4-monooxygenase (Photinus pyralis, UniProt P08659). The assay can be described thus: Counter Screen for Luciferase-based Assay Positives. [Related pubchem assays: 620, 618, 411 ].
Assay [28] concerns the target T6, Bcl-2-related protein A1 (Mus musculus, UniProt Q07440).
T6 sequence (Q07440 whole entry): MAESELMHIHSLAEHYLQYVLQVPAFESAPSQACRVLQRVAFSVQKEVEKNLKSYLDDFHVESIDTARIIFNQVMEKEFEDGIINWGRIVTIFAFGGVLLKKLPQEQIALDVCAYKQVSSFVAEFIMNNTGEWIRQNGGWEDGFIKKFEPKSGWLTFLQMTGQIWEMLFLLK
The assay can be described thus: Bfl-1 inhibitors, primary screen, biochemical, fluorescence polarization, FITC-Bid, mouse (AID 432). For orientation: In fluorescence polarisation assays a small probe gives low polarisation when free and higher when bound to something large.

In assay [29] the target is Protein Rev (Human immunodeficiency virus type 1 group M subtype B (isolate WMJ22)(HIV-1), UniProt P05866). The assay can be described thus: HIV-1 Rev-RRE RNA binding disruptors, dose response, biochemical, protein-RNA interaction (AID 842). The arrangement: species or system Human immunodeficiency virus 1.
Assay [30] addresses T6, Bcl-2-related protein A1. The assay can be described thus: Bfl-1 inhibitors blocking BH3 peptide binding, confirmation, biochemical, TR-FRET, mouse Bfl-1 (AID 621).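 Note: TR-FRET binding of GST-Bfl-1 to FITC-labelled Bid peptide via terbium antibody.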 In general terms: TR-FRET usually uses a lanthanide donor and a delayed reading to cut background.
The target in assay [31] is T7, Eukaryotic translation initiation factor 2-alpha kinase 3 (Homo sapiens, UniProt Q9NZJ5). The assay can be described thus: Counterscreen assay for PERK inhibitors: Dose response cell-based high throughput screening assay to measure inhibition of PERK at 6 hours. [Related pubchem assays: 1522, 1416 ]. The class given is functional.
For assay [32], the target named is T7, Eukaryotic translation initiation factor 2-alpha kinase 3. The assay can be described thus: Dose response cell-based high-throughput screening assay to measure PERK inhibition. [Related pubchem assays: 1416 ]. The class given is functional.
Assay [33] addresses Cytochrome P450 3A4 (Homo sapiens, UniProt P08684). The note with it: Potency.

T7 sequence (Q9NZJ5 whole entry): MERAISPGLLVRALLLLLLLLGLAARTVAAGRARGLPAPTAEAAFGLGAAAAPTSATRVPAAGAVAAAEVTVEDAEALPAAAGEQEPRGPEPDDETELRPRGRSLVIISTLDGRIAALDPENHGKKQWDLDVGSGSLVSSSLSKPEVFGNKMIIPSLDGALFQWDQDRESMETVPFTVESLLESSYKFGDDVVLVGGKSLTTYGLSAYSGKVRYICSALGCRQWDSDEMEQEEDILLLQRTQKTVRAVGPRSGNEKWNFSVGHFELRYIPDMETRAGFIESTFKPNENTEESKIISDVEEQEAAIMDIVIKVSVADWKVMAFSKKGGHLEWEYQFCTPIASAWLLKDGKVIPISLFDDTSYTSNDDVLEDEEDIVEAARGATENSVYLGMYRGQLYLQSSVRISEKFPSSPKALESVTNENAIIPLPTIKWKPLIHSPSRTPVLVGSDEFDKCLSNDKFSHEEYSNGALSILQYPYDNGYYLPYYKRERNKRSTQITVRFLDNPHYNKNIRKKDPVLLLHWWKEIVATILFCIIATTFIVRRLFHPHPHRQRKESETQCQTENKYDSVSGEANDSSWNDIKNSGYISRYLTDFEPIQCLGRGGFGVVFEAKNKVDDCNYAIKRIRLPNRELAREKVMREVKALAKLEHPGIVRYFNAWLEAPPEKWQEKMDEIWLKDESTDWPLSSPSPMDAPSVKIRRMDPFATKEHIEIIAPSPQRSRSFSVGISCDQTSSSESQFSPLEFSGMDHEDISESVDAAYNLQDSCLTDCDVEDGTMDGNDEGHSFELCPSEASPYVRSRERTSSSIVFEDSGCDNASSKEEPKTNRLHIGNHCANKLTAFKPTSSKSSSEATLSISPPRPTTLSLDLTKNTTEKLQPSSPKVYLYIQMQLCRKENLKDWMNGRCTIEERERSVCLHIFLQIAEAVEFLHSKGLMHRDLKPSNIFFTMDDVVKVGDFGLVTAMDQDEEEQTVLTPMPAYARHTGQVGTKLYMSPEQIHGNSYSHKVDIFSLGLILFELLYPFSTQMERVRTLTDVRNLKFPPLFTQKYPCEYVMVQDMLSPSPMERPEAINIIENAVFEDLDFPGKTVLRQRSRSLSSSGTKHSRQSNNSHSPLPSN
T4 sequence (P09923 whole entry): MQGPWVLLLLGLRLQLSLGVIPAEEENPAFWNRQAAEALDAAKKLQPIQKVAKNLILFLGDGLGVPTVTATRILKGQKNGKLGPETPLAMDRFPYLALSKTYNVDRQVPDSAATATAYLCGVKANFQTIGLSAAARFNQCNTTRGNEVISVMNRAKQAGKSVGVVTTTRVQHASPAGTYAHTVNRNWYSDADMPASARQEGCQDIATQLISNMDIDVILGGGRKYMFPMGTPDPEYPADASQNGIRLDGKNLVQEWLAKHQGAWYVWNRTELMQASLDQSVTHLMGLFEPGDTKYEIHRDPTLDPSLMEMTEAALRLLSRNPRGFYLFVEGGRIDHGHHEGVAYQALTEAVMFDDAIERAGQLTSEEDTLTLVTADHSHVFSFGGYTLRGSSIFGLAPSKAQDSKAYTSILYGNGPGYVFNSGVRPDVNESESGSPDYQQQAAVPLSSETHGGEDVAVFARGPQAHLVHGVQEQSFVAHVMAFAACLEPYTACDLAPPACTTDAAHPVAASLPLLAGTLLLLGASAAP
Ion channel NompC, sequence (Q7T1G6 whole entry): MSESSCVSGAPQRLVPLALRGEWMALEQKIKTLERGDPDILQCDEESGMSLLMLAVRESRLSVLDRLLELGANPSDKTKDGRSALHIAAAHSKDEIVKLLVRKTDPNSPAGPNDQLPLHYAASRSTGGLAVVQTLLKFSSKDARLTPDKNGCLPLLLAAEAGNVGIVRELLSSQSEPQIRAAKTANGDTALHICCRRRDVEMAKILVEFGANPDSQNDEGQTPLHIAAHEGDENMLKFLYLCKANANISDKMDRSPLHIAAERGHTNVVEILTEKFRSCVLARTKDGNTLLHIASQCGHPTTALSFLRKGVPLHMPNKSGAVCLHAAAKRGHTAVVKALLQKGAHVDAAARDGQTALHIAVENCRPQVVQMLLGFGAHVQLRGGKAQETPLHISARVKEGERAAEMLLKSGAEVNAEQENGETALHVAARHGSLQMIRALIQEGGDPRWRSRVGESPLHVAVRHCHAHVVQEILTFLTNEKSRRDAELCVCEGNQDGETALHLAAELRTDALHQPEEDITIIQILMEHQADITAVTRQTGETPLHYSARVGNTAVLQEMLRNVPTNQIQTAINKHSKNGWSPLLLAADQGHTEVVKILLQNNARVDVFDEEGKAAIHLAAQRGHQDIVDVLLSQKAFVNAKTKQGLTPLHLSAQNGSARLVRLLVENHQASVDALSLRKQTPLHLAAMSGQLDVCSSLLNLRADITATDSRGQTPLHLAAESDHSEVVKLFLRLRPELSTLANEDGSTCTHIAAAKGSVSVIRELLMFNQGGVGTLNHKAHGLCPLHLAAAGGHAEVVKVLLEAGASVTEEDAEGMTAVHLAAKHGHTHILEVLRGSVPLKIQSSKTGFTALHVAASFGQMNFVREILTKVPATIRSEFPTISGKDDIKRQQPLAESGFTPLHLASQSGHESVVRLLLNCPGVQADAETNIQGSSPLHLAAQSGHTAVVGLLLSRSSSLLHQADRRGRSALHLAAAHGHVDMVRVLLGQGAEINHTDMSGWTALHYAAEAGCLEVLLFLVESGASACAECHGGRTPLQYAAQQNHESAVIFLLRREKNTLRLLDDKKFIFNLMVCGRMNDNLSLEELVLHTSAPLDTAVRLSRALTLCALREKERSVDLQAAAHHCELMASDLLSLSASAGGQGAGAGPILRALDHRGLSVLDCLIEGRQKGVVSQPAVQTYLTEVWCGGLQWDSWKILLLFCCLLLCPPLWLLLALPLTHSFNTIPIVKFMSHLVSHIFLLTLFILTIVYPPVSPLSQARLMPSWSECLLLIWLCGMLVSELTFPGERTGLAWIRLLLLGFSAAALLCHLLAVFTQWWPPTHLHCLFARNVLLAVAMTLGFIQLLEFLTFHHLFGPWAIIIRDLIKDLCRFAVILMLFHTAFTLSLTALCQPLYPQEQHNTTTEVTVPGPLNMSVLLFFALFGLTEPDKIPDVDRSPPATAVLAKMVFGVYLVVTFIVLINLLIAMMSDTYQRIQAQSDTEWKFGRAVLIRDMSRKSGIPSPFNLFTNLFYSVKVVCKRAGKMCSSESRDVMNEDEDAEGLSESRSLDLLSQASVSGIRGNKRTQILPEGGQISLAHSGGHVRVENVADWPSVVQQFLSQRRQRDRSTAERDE
Luciferin 4-monooxygenase, sequence (P08659 whole entry): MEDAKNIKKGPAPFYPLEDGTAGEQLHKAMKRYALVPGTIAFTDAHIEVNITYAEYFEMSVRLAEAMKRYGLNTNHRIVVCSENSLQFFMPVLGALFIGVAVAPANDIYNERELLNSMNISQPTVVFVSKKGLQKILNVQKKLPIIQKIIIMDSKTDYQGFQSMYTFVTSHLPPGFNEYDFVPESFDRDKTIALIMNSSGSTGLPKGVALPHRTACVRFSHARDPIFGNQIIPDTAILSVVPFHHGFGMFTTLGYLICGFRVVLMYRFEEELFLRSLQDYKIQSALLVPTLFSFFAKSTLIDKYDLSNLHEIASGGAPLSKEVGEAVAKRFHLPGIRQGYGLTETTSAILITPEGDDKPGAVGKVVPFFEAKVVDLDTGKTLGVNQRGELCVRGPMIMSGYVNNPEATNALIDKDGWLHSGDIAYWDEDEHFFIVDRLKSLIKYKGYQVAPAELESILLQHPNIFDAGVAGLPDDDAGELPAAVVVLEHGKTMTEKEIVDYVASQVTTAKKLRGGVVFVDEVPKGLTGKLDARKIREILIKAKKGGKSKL
Mucolipin-3, sequence (Q8TDD5 whole entry): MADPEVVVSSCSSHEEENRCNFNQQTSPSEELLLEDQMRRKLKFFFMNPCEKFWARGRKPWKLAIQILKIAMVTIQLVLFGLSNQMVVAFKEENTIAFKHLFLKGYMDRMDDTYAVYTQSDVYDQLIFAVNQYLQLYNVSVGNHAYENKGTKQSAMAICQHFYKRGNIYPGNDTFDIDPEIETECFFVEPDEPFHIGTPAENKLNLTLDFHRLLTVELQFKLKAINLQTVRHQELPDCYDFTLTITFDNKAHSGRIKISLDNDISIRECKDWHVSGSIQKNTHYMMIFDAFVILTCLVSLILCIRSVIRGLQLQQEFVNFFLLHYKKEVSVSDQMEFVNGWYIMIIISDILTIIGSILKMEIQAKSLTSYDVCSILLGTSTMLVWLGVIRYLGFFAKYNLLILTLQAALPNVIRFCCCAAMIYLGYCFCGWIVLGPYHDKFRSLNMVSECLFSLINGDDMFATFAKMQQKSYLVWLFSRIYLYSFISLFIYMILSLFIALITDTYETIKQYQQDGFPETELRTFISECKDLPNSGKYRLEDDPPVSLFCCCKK
Cytochrome P450 3A4, sequence (P08684 whole entry): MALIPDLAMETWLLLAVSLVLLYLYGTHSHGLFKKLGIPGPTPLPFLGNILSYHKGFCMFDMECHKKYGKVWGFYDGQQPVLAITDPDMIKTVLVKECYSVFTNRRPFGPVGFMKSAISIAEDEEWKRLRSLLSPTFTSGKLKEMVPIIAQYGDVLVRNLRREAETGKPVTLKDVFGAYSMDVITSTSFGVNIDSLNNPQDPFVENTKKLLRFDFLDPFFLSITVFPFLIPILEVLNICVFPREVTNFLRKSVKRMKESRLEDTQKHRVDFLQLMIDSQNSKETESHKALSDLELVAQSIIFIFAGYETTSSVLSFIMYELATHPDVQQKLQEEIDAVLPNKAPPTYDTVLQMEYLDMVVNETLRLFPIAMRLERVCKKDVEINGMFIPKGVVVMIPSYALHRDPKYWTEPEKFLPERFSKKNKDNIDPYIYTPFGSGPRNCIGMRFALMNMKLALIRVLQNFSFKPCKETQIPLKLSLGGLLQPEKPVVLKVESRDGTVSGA
Protein Rev, sequence (P05866 whole entry): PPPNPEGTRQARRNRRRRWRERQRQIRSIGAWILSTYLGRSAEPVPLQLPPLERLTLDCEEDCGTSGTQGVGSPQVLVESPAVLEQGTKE

For the molecule `Cc1ccc(C)n1-c1ccc(Br)cc1C(=O)O`, the EC50 in assay [1] was 3.51 µM (active).
As to `Cc1cccc(C)c1Oc1nc(-c2ccccc2)ncc1S(=O)(=O)c1ccccc1`, the EC50 in assay [2] was 13.2 µM (active); in assay [3], > 150 µM (not active); in [4], 44.1 µM (active); in assay [5], > 500 µM (not active); in assay [6], 3.99 µM (active); in assay [7], 16.9 µM (active). Moreover, in assay [8], the EC50 was 29.8 µM (active).
For `CN(C)c1nc(N)nc(CSc2nnnn2-c2ccccc2)n1`, the EC50 in [9] is > 195 µM (not active).
On to `[O-][n+]1onc2c1CCc1[nH]c(-c3ccccc3)nc1-2`, for which the IC50 is > 50 µM (not active) in assay [10], 14 µM (active) in [11] and > 50 µM (not active) in [13]. In addition, the EC50 in assay [12] was > 50 µM (active).
Turning to `COc1ccc(OC)c(N(CC(=O)N2CCN(c3cc(Cl)ccc3C)CC2)S(C)(=O)=O)c1`, the IC50 is 38.9 µM (active) in [14] and 11.7 µM (not active) in [15].
Regarding `COc1ccc(S(=O)(=O)N2CCC(C)CC2)cc1Br`, the EC50 is > 29.9 µM (not active) in assay [16] and 1.82 µM (active) in [17].
For the molecule `O=c1c2cc(O)c(O)cc2oc2cc(O)c(C3OC(CO)C(O)C(O)C3O)c(O)c12` (centres undefined), the IC50 is 8.63 µM (active) in assay [18]; 0.262 µM (active) in assay [19]; > 39.8 µM (not active) in assay [20]; 1.19 µM (active) in assay [22]; > 39.8 µM (not active) in [23]; 14 µM (active) in assay [24]. The EC50 in assay [21] is > 100 µM (inactive).
Turning to `CC(=O)c1sc(NC(=O)C2COc3ccccc3O2)nc1C` (centres undefined), the results for the EC50 in assay [25] and in assay [27] were > 50 µM (not active) and 3.97 µM (active), respectively. Besides, the AC50 in [26] is 2.85 µM (active).
Take `COc1cccc(OC)c1-c1nn2c(-c3cc(-c4ccccc4)n[nH]3)nnc2s1`: the IC50 in assay [28] was 14.1 µM (active); in assay [15], > 50 µM (not active); in [29], > 79.4 µM (not active); in assay [30] it was > 100 µM (not active).
As for `COc1ccc(/C=C/C(=O)N[C@@H](C)C(=O)O)cc1`, the EC50 in assay [31] and in assay [32] was > 55.7 µM (not active) each time.
In the case of `COCCN(CCOC)c1nc(C)nc2c1nc(-c1ccccc1)n2CCN(C)C`, in assay [33], the AC50 was 15.8 µM (inconclusive).

In general, EC50 refers to the concentration needed to bring the measured effect to its halfway point. Broadly, the IC50 is the midpoint of a concentration-inhibition curve. For orientation: AC50 means the midpoint of the concentration-response curve, whichever way the signal moves.
